The text below walks through data of US9051579B2, “Herbicide-tolerant plants through bypassing metabolic pathway” (Bayer S.A.S., priority 2000, dated 2015).

Experiment [1] relates to HPP oxidase (HPPO). Description: HPP oxidase activity assay (colorimetric / HPLC), influence of added compounds. It is filed as biochemical, Arthrobacter globiformis. Particulars: 115 ppm.
From the text: The enzyme reaction is stopped by adding 2,4-dinitrophenylhydrazine (2,4-DNPH), in solution in 2 M HCl. The 2, 4-DNPH reacts with the ketone function in the alpha position of a carboxylic function (example: HPP). […] When the HPP is completely converted to 4-HPA during the enzyme reaction, the hydrazone cannot form, and the characteristic yellow color of 2,4-DHPA is therefore obtained in basic medium. If the HPP is not completely converted to 4-HPA during the enzyme reaction, the formation of hydrazone is possible. These hydrazones are brown in color in basic medium. A variation in color between these two extremes is obtained as a function of the amount of HPP consumed. The absorption measurements are carried out at 445 or 450 nm. In order to make this assay more easy to handle, we adapted it to the 96-well microplate format. The reaction mixture comprises GSH (900 μM); HPP (135 μM); TPP (1.8 mM); MgCl2 (4.5 mM); FAD (4 μM); potassium phosphate buffer (90 mM) pH 7.4. The mixture is kept on ice. 50 μL of the test fraction and 150 μL of reaction mixture are placed in each well. After 20 min at 30° C., the enzyme reaction is stopped with 13 μL of 2,4-DNPH solution (0.1% in 2 M HCl). The mixture is left to react for 20 min at ambient temperature. […] To prepare the standard range, reaction mixtures with varying concentrations of HPP are prepared. […]
The subject of experiment [2] is Arabidopsis seeds. Description: Germination of Arabidopsis seeds on MS medium with DKN, with or without homogentisate. Type of experiment: in vivo. As for the experimental part: 1 Murashige and Skoog medium (T. Murashige and F. Skoog, 1962. A revised medium for a rapid growth and bioassays with tobacco tissue culture. Physiol. Plant. 15, 473-479), control experiment for germination
2 MS medium plus DKN at a dose of 1 ppm
3 MS medium plus DKN at the same dose+homogentisate at a concentration of 5 mM.

[3] abbreviates: medium 2: MS medium plus DKN at 1 ppm.

As for `CC(C)C1(C)N=C(c2ncccc2C(=O)O)NC1=O` (centres unmarked) [imazapyr], in experiment [1], the “inhibition of the HPPO” value was “not inhibited”.
Consider `CS(=O)(=O)c1cc(C(F)(F)F)ccc1C(=O)C(C#N)C(=O)C1CC1` (centres unmarked) [DKN], for which the “germination and pigmentation of the plantlet” value in experiment [2] (setting [3]) is “germination occurs, but the plantlet which emerges is white, the two cotyledons exhibiting no pigmentation”; in experiment [2] (medium 3: MS medium plus DKN 1 ppm + homogentisate 5 mM), “germination occurs normally, the cotyledons are clearly green”. Also, the “survival of the plantlets” value in experiment [2] (setting [3]) is on record as “die in a few days”. In experiment [2] (medium 3: MS medium plus DKN 1 ppm + homogentisate 5 mM, as homogentisate in the medium decreases), the “later development of the plants” value was “the first symptoms of bleaching appear and plant growth stops, they end up dying”.
